Reference: publication PMC9374667 (Communications Biology, 2022)
Where “and” joins values, the source holds several entries; their conditions need not be identical. Equal entries are not always repeated.

Key:
Type in all cases: cell-based, Murine
IKKε [1] = molecular target: T1, IKKε (Mus musculus, UniProt Q9R0T8); test: IKKε-knockdown 3T3-L1 adipocytes (siRNA; western blotting, cAMP, glycerol, ISO); set-up: endogenous in cells; host or cells: differentiated 3T3-L1 adipocytes; conditions: ISO +, 10μM BJ -
T1 sequence (Q9R0T8 1-717): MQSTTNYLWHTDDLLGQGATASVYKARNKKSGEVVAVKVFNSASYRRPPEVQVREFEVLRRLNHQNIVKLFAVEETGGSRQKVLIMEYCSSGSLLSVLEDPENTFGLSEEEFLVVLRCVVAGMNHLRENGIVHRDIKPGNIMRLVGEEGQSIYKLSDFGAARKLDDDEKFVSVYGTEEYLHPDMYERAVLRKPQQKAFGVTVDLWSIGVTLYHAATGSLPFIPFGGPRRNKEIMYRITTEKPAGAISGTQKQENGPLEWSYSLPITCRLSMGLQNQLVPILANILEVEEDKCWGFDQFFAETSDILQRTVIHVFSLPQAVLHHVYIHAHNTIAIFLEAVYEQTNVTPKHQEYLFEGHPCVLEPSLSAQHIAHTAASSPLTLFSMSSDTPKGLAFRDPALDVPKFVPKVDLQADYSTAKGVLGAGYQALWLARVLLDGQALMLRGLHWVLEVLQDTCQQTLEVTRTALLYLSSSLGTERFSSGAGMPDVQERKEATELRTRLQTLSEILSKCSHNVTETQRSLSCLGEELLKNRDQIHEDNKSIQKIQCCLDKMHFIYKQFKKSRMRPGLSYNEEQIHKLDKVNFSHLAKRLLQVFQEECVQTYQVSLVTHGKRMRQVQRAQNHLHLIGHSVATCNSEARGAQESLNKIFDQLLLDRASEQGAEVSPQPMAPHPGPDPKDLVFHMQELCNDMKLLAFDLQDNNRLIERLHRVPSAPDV
Procedure: (§1) Small interference RNA transfection (siRNA) was performed using 4 μM TBK1 siRNA (siTBK1) or 4 μM […]ε) or corresponding NC siRNA (siNC). The epididymal adipose tissue was dissected, the fresh adipose tissue was weighed and rapidly rinsed with PBS. The adipose tissue was cut and incubated with isoproterenol (10 μM) for 2 h, and homogenized in a cold cleavage buffer to prepare the adipose tissue homogenate. Then the homogenate was centrifuged at 12,000 × g at 4 °C for 15 min, and the supernatant was collected. […] Then the cells were lysed in a petri dish, scraped off, and centrifuged at 12,000 × g at 4 °C for 15 min before the supernatant was collected. […] And concentrations were further standardized according to protein concentration. The adipose tissue or 3T3-L1 adipocytes were homogenized by ultrasound in an ice-cold RIPA lysis buffer containing 1% PMSF and centrifuged at 12,000 × g at 4°C for 15 min to collect the supernatant. The BCA protein assay kit (Beyotime, Shanghai, China) was used to detect the total protein concentration. Proteins (20-30 μg) of the sample were separated by 10% SDS-PAGE gel and transferred onto polyvinylidene difluoride (PVDF) membranes. Then the PVDF membranes were blocked in 5% skim milk powder in TBS containing 1% Tween-20 (TBST) for 2 h at room temperature and washed with TBST for 3 times. […] After washing, the membranes were incubated with horseradish peroxidase-conjugated secondary antibodies (in 5% skim milk powder) for 1 h at room temperature. Finally, the membranes were treated with enhanced chemiluminescence agents (Tanon, Shanghai, China) and the signals were monitored using the Tanon 5200 multi chemiluminescent imaging system (Tanon, Shanghai, China).

IKKε [2] = molecular target: T1, IKKε; test: 3T3-L1 adipocytes transfected with IKKε plasmid (western blotting, cAMP, glycerol, ISO); set-up: endogenous in cells; host or cells: differentiated 3T3-L1 adipocytes; IKKε (western blotting, Figure 8h) / UCP1 (western blotting, Figure 8i) / UCP1 (western blotting, Figure 8j): scale not given here; cAMP levels (Figure 8k) / Glycerol release (Figure 8l): unit not given here
Procedure: as §1

cAMP, glycerol release = test: cAMP levels and glycerol release in TNF-α induced 3T3-L1 adipocytes (isoproterenol)
Procedure: The epididymal adipose tissue was dissected, the fresh adipose tissue was weighed and rapidly rinsed with PBS. The adipose tissue was cut and incubated with isoproterenol (10 μM) for 2 h, and homogenized in a cold cleavage buffer to prepare the adipose tissue homogenate. Then the homogenate was centrifuged at 12,000 × g at 4 °C for 15 min, and the supernatant was collected. […] Then the cells were lysed in a petri dish, scraped off, and centrifuged at 12,000 × g at 4 °C for 15 min before the supernatant was collected. […] And concentrations were further standardized according to protein concentration.

UCP1 (western blotting, Figure 9J) (IKKε [1]; siIKKϵ +): 0.6893 and 0.7105 and 0.7747 | UCP1 (western blotting, Figure 9J) (IKKε [1]; siIKKϵ -): 0.5841 and 0.5565 and 0.4767 | Glycerol release (Figure 8l) (IKKε [2]; ISO): 108.886 and 102.136 and 112.261 | UCP1 (western blotting, Figure 8j) (IKKε [2]; ISO): 0.8258 and 0.5499 and 0.929 | cAMP levels (Figure 8k) (IKKε [2]; ISO): 0.2652 and 0.258 and 0.2726 | Glycerol release (Figure 8l) (IKKε [2]; ISO+IKKε): 84.4172 and 90.3234 and 97.917 | UCP1 (western blotting, Figure 8j) (IKKε [2]; ISO+IKKε): 0.3959 and 0.3641 and 0.3989 | cAMP levels (Figure 8k) (IKKε [2]; ISO+IKKε): 0.1824 and 0.1892 and 0.1882
SMILES: CC(C)NCC(O)c1ccc(O)c(O)c1 (stereo not shown) [ISO]
Glycerol (Figure 9l) (IKKε [1]; siIKKϵ +): 169.673 µmol/L and 171.907 µmol/L and 177.534 µmol/L | cAMP (Figure 9k) (IKKε [1]; siIKKϵ +): 0.3589 pmol/mg protein and 0.3755 pmol/mg protein and 0.3876 pmol/mg protein and 0.3693 pmol/mg protein and 0.3629 pmol/mg protein and 0.3678 pmol/mg protein | Glycerol (Figure 9l) (IKKε [1]; siIKKϵ -): 104.409 µmol/L and 108.54 µmol/L and 120.987 µmol/L | cAMP (Figure 9k) (IKKε [1]; siIKKϵ -): 0.2714 pmol/mg protein and 0.2836 pmol/mg protein and 0.2536 pmol/mg protein and 0.2485 pmol/mg protein and 0.2952 pmol/mg protein | Glycerol release in differentiated 3T3-L1 adipocytes induced by TNF-α (cAMP, glycerol release; ISO): 113.104 µmol/L and 118.167 µmol/L and 114.792 µmol/L | cAMP levels in differentiated 3T3-L1 adipocytes induced by TNF-α (cAMP, glycerol release; ISO): 0.361 pmol/mg protein and 0.3597 pmol/mg protein and 0.3681 pmol/mg protein | Glycerol release in differentiated 3T3-L1 adipocytes induced by TNF-α (cAMP, glycerol release; ISO+TNF-α(50ng/ml)): 103.823 µmol/L and 102.136 µmol/L and 105.511 µmol/L | cAMP levels in differentiated 3T3-L1 adipocytes induced by TNF-α (cAMP, glycerol release; ISO+TNF-α(50ng/ml)): 0.2016 pmol/mg protein and 0.1968 pmol/mg protein and 0.1945 pmol/mg protein
